Test system: C. elegans wild type strain N2
Assay: C. elegans behavioral toxicity (thrashing/swimming) assay after 24 hours exposure to nicotine or tobacco extract with or without probiotic bacteria
Details: control worms with no bacteria, FIG. 1
Description: Experiments were carried out with the wild type strain N2 of C. elegans. Worms were synchronized by isolating eggs from gravid adults, collecting the eggs in M9 buffer, hatching the eggs overnight in NGM plates and sterilely isolating L1-stage worms with M9 buffer. The L1-stage worms were transferred to NGM (Nematode Growth Medium) plates inoculated with Escherichia coli strain OP50 and incubated for four days at 15° C. to reach adulthood.
Similarly, a natural tobacco extract (ABT #6079, Advanced Biotech) was diluted in M9 buffer to a final concentration of 6.2 mM.
Adult worms were washed in M9 buffer and 250 μl of worm suspension was transferred to 24-well culture plates with or without nicotine (250 μl if present) or tobacco extract (250 μl if present) and with or without probiotic suspension (500 μl if present). The probiotic suspension was added first to the wells followed by the nicotine or the tobacco extract. At least 40 worms were present per well. The plates were incubated at 20° C. for 24 hours. After incubation period, worm suspension in each well was washed three times in M9 buffer (centrifugation of four minutes at 1000 rpm). The worms were transferred in new 24-well culture plates containing 1 ml of agar 1% in each well. The worms were allowed to equilibrate for 45 minutes, and then the thrashing (swimming) was recorded using a Leica EC3 camera. […]

CN1CCCC1c1cccnc1.O.O.O=C(O)C(O)C(O)C(=O)O.O=C(O)C(O)C(O)C(=O)O (stereo not shown) [nicotine, Nicotine ditartrate dihydrate]
behavioral toxicity of the challenge agent to worms without bacteria: induced a reversible paralysis

Reference: US20210069269A1, “METHOD FOR ALLEVIATING TOBACCO OR NICOTINE WITHDRAWAL SYMPTOMS” (DANSTAR FERMENT AG, priority 2018, published 2021)
